Data from patent publication US12378178B2, “Oleic acid derivatives as treatments for Friedreich ataxia and inhibitors of ferroptosis” (THE TRUSTEES OF THE UNIVERSITY OF PENNSYLVANIA, priority 2019, dated 2025).
Entries after “also recorded” stand apart in the source; their conditions may differ.

Columns and labels:
[1] = tested on: mouse fibroblast I154F cell lines; assay: Rescue of viability of murine I154F fibroblasts treated with FAC+BSO; details: for Relative to Oleic Acid: 1 = oleic acid, 0.5 = no rescue; for activity in FAC+BSO assay: following FAC+BSO treatment, concentration not given
[2] = tested on: human FRDA fibroblast line GM4078; assay: Survival of human FRDA fibroblast line GM4078 treated with FAC and BSO; type: cell-based; details: for Relative to Oleic Acid (change in survival compared to cells treated with 40 μM oleic acid) / toxicity / activity in dose response: FAC and BSO; for activity: trifluoromethyl ketone and alcohol analogs; for toxicity: compound 40 μM; for activity in dose response: lower concentrations down to 5 μM
Method: To test the efficacy of the above compounds, they were tested at least at two different concentrations using human FRDA fibroblast line GM4078 treated with FAC and BSO and the change in survival compared to cells treated with 40 μM oleic acid was measured Table 2 has the results of the compounds tested at 40 μM.

[3] = tested on: human FRDA fibroblasts 3816; assay: Rescue of human FRDA fibroblasts 3816 treated with erastin; type: cell-based; details: for survival: 10 μM erastin for 24 h (85% cell death)
[4] = tested on: human FRDA fibroblasts 3816; assay: as above; type: cell-based; details: erastin 5 μM; for survival: 48 h (erastin alone 32%)
Method: Addition of O[…] at 5 μM was sufficient to increase survival to 50% (1.5 fold) and at 10 μM and 20 μM survival went up to 80 and 84% (2.5 and 2.6 fold) respectively (FIG. 2B).

[5] = tested on: immortalized human fibroblasts 3665-T cells; assay: Survival of immortalized human fibroblasts 3665-T treated with FAC and BSO; type: cell-based; details: for survival: FAC and BSO (95% cell death)
Source text: Stereospecific activity of the two enantiomers was confirmed using the immortalized human fibroblasts 3665-T cells, a more severe model of FRDA. […] (FIG. 2A).

PGC1-α = PGC1-α expression in human FRDA fibroblasts GM3816; type: cell-based; details: compound 16 μM; after 96 h
Method: Oleic acid, as well as other fatty acids of different length and degree of saturation, binds and activates the peroxisome proliferator-activated receptor gamma (PPAR-γ), a key regulator of glucose and lipid metabolism, which up-regulates PGC1-α, among other targets. Pioglitazone, a PPAR-γ agonist is a thiazolidinedione used to treat type-2 diabetes. […] Human FRDA fibroblasts GM3816 were treated with 10 μM pioglitazone and increased PGC1-α expression was measured starting at 48 h. The expression doubled at 96 h, a time frame sufficient for PGC1-α to have an effect in a typical FAC+BSO experiment, whereas 16 μM oleic acid increased PGC1-α expression only 1.4 fold after 96 h.

[6] = tested on: murine fibroblast I154F cells; assay: Rescue from erastin-induced ferroptosis, murine I154F fibroblast model; type: cell-based; details: 5 μM erastin for 48 h (erastin alone 44%)
[7] = tested on: healthy human fibroblasts with frataxin knockdown; details: earlier work referred to in the text; cited from earlier work
[8] = tested on: murine fibroblast I154F cells; assay: Lipid peroxidation in murine fibroblast I154F cells; type: cell-based
Method: The basal level of lipid peroxides was tested in the murine fibroblast I154F cells compared to the parental line 2F1 and a detectable higher level of lipid peroxides was found in the cells containing a missense frataxin (FIG. 3A).

lipoxygenases (Lox) = assay: In vitro lipoxygenase activity assay; type: biochemical; details: compound at 1 nM and 10 nM; solubility problems precluded higher concentrations
Method: Oleic acid has been reported to inhibit soybean lipoxygenase, as well as human 15-lipoxygenase, by binding an allosteric site. […] Whether O[…] was inhibiting lipoxygenase activity was tested using an in vitro assay.

[9] = tested on: immortalized myoblast cell line transfected with a frataxin siRNA; assay: Lipid peroxidation in immortalized myoblast cell line with frataxin siRNA knock-down; type: cell-based; details: compound 5 μM every 48 h post transfection
Method: Knocking-down frataxin in human fibroblasts results in increased lipid peroxidation, which could be easily measured when the cells were also treated with the ferroptosis inducer RSL-3. To test whether OA200R would be efficacious in the knock-down system, an immortalized myoblast cell line was transfected with a frataxin siRNA or a scrambled siRNA control. A 65% protein loss was achieved over 4 days and a statistically significant increase of lipid peroxidation (1.4 fold) compared to the cells transfected with a scrambled control.

CCCCCCCC/C=C\CCCCCCCC(=O)OC [Oleic Acid OMe]
Relative to Oleic Acid ([1]; tested at 40 μM, <0.5 toxic): 0.95 ± 0.12

CCCCCCCCC1OC2(CCCCC2)OC1CCCCCCCC(=O)O (stereo not shown) [OA-95]
Relative to Oleic Acid (change in survival compared to cells treated with 40 μM oleic acid) ([2]; tested at 40 μM): 0.24 ± 0.04

CCCCCCCCCCCCCC(=O)O [Myristic Acid]
Relative to Oleic Acid ([1]; tested at 40 μM, <0.5 toxic): 0.11 ± 0.02

CCCCCCCCCCCCCCCC(=O)O [Palmitic Acid]
Relative to Oleic Acid ([1]; tested at 40 μM, <0.5 toxic): 0.18 ± 0.07

CCCCCCCCC(O)C(O)CCCCCCCC(=O)O (stereo not shown) [OA-81]
Relative to Oleic Acid (change in survival compared to cells treated with 40 μM oleic acid) ([2]; tested at 40 μM): 0.14 ± 0.03

CCCCCCCC/C=C\CCCCCCC[C@H](O)C(F)(F)F [S-isomer, (S,Z)-1,1,1-trifluorononadec-10-en-2-ol]
activity ([3]; any concentration, 10 μM erastin for 24 h): inactive
activity ([2]; assay not given): inactive
activity ([4]; compound between 20 and 5 μM, 48 h): no activity
efficacy ([5]; compound 5 μM, FAC and BSO): inefficacious
survival ([5]; compound 20 μM): 10%
survival ([5]; compound 40 μM): 22%

CCCCCC/C=C\CCCCCCCCCC(=O)O [Cis-Vaccenic Acid]
efficacy in FAC+BSO assay ([1]; compound 40 μM): comparable to oleic acid
Relative to Oleic Acid ([1]; tested at 40 μM, <0.5 toxic): 1.00 ± 0.08

CCCCCCCC/C=C\CCCCCCCC(=O)C(F)(F)F [OA-210, (Z)-1,1,1-trifluorononadec-10-en-2-one]
Relative to Oleic Acid (change in survival compared to cells treated with 40 μM oleic acid) ([2]; 10 μM printed beside the value): 0.52 ± 0.13
toxicity [2]: slightly toxic
activity in dose response [2]: active

CCCCCCCC/C=C\CCCCCCCC(=O)OCC [Oleic Acid OEt]
Relative to Oleic Acid ([1]; tested at 40 μM, <0.5 toxic): 0.77 ± 0.18

Heptadecenoic acid
Relative to Oleic Acid ([1]; 20 μM): 0.7 ± 0.05
Relative to Oleic Acid ([1]; tested at 40 μM, <0.5 toxic): 0.83 ± 0.05

CCCCC/C=C\C/C=C\C/C=C\CCCCC(=O)O [γ-linolenic Acid]
activity in FAC+BSO assay [1]: increased cell death
Relative to Oleic Acid ([1]; tested at 40 μM, <0.5 toxic): 0.16 ± 0.02

CCCCCCCCCC/C=C\CCCCCCCC(=O)O [Gadoleic acid]
efficacy in FAC+BSO assay ([1]; compound 40 μM): comparable to oleic acid
Relative to Oleic Acid ([1]; tested at 40 μM, <0.5 toxic): 0.77 ± 0.16

CCCCCCCCC1OC(C)(C)OC1CCCCCCCC(=O)O (stereo not shown) [OA-90]
Relative to Oleic Acid (change in survival compared to cells treated with 40 μM oleic acid) ([2]; tested at 40 μM): 0.05 ± 0.02

CCCCCCCC/C=C\CCCCCCCC(O)C(F)(F)F (racemic) [[rac]-OA-200, (Z)-1,1,1-trifluorononadec-10-en-2-ol]
Relative to Oleic Acid (change in survival compared to cells treated with 40 μM oleic acid) ([2]; 10 μM printed beside the value): 0.67 ± 0.17
potency in rescuing cell viability compared with oleic acid ([2]; cells treated with FAC and BSO, or with erastin): significantly more potent than oleic acid
toxicity [2]: slightly toxic
activity in dose response [2]: active

CCCCCCCCCCCC(=O)O [Lauric Acid]
activity in FAC+BSO assay [1]: inactive
Relative to Oleic Acid ([1]; tested at 40 μM, <0.5 toxic): 0.47 ± 0.12

CCCCCC/C=C\CCCCCCCC(=O)O [Palmitoleic Acid]
Relative to Oleic Acid ([1]; 20 μM): 0.73 ± 0.04
efficacy in FAC+BSO assay ([1]; compound 40 μM): comparable to oleic acid
Relative to Oleic Acid ([1]; tested at 40 μM, <0.5 toxic): 0.77 ± 0.03

CCCCCCCC/C=C\CCCCCCCC(=O)O [Oleic Acid]
rescue of cell viability ([3]; compound 40 μM, 10 μM erastin for 24 h): did not rescue cell viability
increase of survival ([4]; compound 20 μM, 48 h): 1.5 fold
increase of PGC1-α expression (PGC1-α): 1.4 fold
effect on cell survival ([1]; compound 16 μM, FAC+BSO): doubled cell survival
efficacy in FAC+BSO assay ([1]; compound 40 μM): doubled survival
EC50 ([1]; read-out: EC50 in the FAC+BSO in mouse fibroblasts assay, FAC+BSO): 23 µM
Relative to Oleic Acid ([1]; tested at 40 μM, <0.5 toxic): 1.03 ± 0.04
cell survival ([6]; compound 5 μM): 49%
cell survival ([6]; compound 10 μM): 55%
cell survival ([6]; compound 20 μM): 65%

CCCCCCCC/C=C\CCCCCCCCCCCC(=O)O [Erucic add]
efficacy in FAC+BSO assay ([1]; compound 40 μM): comparable to oleic acid
Relative to Oleic Acid ([1]; tested at 40 μM, <0.5 toxic): 0.93 ± 0.07

CCCCCCCCC1OC1CCCCCCCC(=O)O (stereo not shown) [OA-50]
Relative to Oleic Acid (change in survival compared to cells treated with 40 μM oleic acid) ([2]; tested at 40 μM): 0.15 ± 0.02

CCCCCC/C=C\CCCCCCCCC(O)C(F)(F)F (racemic) [[rac]-HA-200]
Relative to Oleic Acid (change in survival compared to cells treated with 40 μM oleic acid) ([2]; tested at 40 μM): 0.56 ± 0.03

CCCCCCCCCC(=O)O [Capric Acid]
activity in FAC+BSO assay [1]: inactive
Relative to Oleic Acid ([1]; tested at 40 μM, <0.5 toxic): 0.49 ± 0.09

CCCCCC/C=C\CCCCCCCCC(=O)C(F)(F)F [HA-210]
Relative to Oleic Acid (change in survival compared to cells treated with 40 μM oleic acid) ([2]; tested at 40 μM): 0.35 ± 0.02

CCCCCCCCCCC/C=C\CCCCC(=O)O [Petrosenilic Acid]
efficacy in FAC+BSO assay ([1]; compound 40 μM): comparable to oleic acid
Relative to Oleic Acid ([1]; tested at 40 μM, <0.5 toxic): 0.74 ± 0.04

CCCCC/C=C\C/C=C\CCCCCCCC(=O)O [linoleic acid]
cell viability ([1]; compound 16 μM, FAC+BSO (alone 40% of control cells)): 30 % of control cells

CCCCCCCCCCCCCCCCCC(=O)O [Stearic Acid]
effect on cell survival ([1]; compound 16 μM, FAC+BSO): no effect
Relative to Oleic Acid ([1]; tested at 40 μM, <0.5 toxic): 0.50 ± 0.06

CCOC(=O)c1ccc(NC2CCCCC2)c(NCc2ccccc2)c1 [SRS11-92]
cell death associated with frataxin knockdown [7]: decreased the cell death

CCCCCCCCC=CCCCCCCCC(=O)NO [OA310]
Relative to Oleic Acid ([1]; 10 μM): 1.04 ± 0.04

CCCCCCCC/C=C\CCCCCCCC(N)=O [Oleic Acid NH2]
Relative to Oleic Acid ([1]; tested at 40 μM, <0.5 toxic): 0.79 ± 0.13

CCCCCCCC/C=C/CCCCCCCC(=O)O [Elaidic Acid]
efficacy in FAC+BSO assay ([1]; compound 40 μM): slightly toxic
efficacy in FAC+BSO assay ([1]; compound 160 μM): somehow effective
Relative to Oleic Acid ([1]; tested at 40 μM, <0.5 toxic): 0.30 ± 0.08

CCCCCCCC/C=C\CCCCCCC[C@@H](O)C(F)(F)F [OA200R, (R,Z)-1,1,1-trifluorononadec-10-en-2-ol]
survival ([3]; compound 5 μM): 48%
survival ([3]; compound 10 μM): 87%
survival ([3]; compound 20 μM): 88%
concentration at which reduction of lipid peroxidation reached statistical significance [8]: 5 µM
lipid peroxidation ([8]; basal lipid peroxides): reduced lipid peroxidation in a dose-dependent manner
potency of (R)-enantiomer relative to (S)-enantiomer ([2]; rescue of cell viability, assay not given): seven-fold
activity ([2]; assay not given): activity resides in the (R) enantiomer
Lox enzymatic activity (lipoxygenases (Lox)): did not affect Lox enzymatic activity; also recorded: does not inhibit
decreased lipid peroxidation [9]: 20%
increase of survival ([4]; compound 5 μM, 48 h): 1.5 fold
survival ([4]; compound 5 μM): 50%
increase of survival ([4]; compound 10 μM, 48 h): 2.5 fold
survival ([4]; compound 10 μM): 80%
increase of survival ([4]; compound 20 μM, 48 h): 2.6 fold
survival ([4]; compound 20 μM): 84%
survival ([5]; compound 10 μM): 25%
survival ([5]; compound 20 μM): 77%
survival ([5]; compound 40 μM): 95%
